Series [1] can be described thus: Lethal dose is determined in mice (iv). Format: toxicity, organism-based. To be noted: mouse, in vivo.
Series [2] in a line: Lethal dose is determined in mice (po). Format: toxicity, organism-based. The note with it: mouse, in vivo.
The subject of series [3] is Rattus norvegicus. Kind of series: Compound is evaluated for antiinflammatory activity using carrageenan-induced paw edema method in rat at a dose 5 mg/kg ip after 1 hr. Format: functional. To be noted: route intraperitoneal.
For series [4], the system named is Rattus norvegicus. Kind of series: Compound is evaluated for antiinflammatory activity using carrageenan-induced paw edema method in rat at a dose 5 mg/kg ip after 2 hr. The note with it: route intraperitoneal. The series is classed as functional.
The subject of series [5] is Rattus norvegicus. In words: Compound is evaluated for antiinflammatory activity using carrageenan-induced paw edema method in rat at a dose 5 mg/kg ip after 3h. The series is classed as functional. The note with it: route intraperitoneal.
The subject of series [6] is Rattus norvegicus. Kind of series: Compound is evaluated for antiinflammatory activity using carrageenan-induced paw edema method in rat at a dose 500 mg/kg ip after 1 hr. To be noted: route intraperitoneal. The series is classed as functional.
Series [7] concerns Rattus norvegicus. In words: Compound is evaluated for antiinflammatory activity using carrageenan-induced paw edema method in rat at a dose 500 mg/kg ip after 2 hr. The series is classed as functional. To be noted: route intraperitoneal.
Series [8] deals with Rattus norvegicus. In words: Compound is evaluated for antiinflammatory activity using carrageenan-induced paw edema method in rat at a dose 500 mg/kg ip after 3h. The series is classed as functional. The note with it: route intraperitoneal.
In series [9] the test system is Rattus norvegicus. In words: Compound is evaluated for antiinflammatory activity using carrageenan-induced paw edema method in rat at a dose 200 mg/kg po after 1 hr. Format: functional.
In series [10] the test system is Rattus norvegicus. In words: Compound is evaluated for antiinflammatory activity using carrageenan-induced paw edema method in rat at a dose 200 mg/kg po after 2 hr. Format: functional.
The test system of series [11] is Rattus norvegicus. In words: Compound is evaluated for antiinflammatory activity using carrageenan-induced paw edema method in rat at a dose 200 mg/kg po after 3h. The series is classed as functional.
The test system of series [12] is Rattus norvegicus. In words: Compound is evaluated for antiinflammatory activity using carrageenan-induced paw edema method in rat at a dose 25 mg/kg ip after 1 hr. The note with it: route intraperitoneal. The series is classed as functional.
Series [13] deals with Rattus norvegicus. Kind of series: Compound is evaluated for antiinflammatory activity using carrageenan-induced paw edema method in rat at a dose 25 mg/kg ip after 2 hr. Format: functional. The note with it: route intraperitoneal.
For series [14], the system named is Rattus norvegicus. Kind of series: Compound is evaluated for antiinflammatory activity using carrageenan-induced paw edema method in rat at a dose 25 mg/kg ip after 3h. The series is classed as functional. The note with it: route intraperitoneal.
The subject of series [15] is Rattus norvegicus. In words: Compound is evaluated for antiinflammatory activity using carrageenan-induced paw edema method in rat at a dose 30 mg/kg ip after 2 hr. The series is classed as functional. The note with it: route intraperitoneal.
Series [16] relates to Rattus norvegicus. In words: Compound is evaluated for antiinflammatory activity using carrageenan-induced paw edema method in rat at a dose 30 mg/kg ip after 3h. Format: functional. To be noted: route intraperitoneal.
For series [17], the system named is Rattus norvegicus. In words: Compound is evaluated for antiinflammatory activity using carrageenan-induced paw edema method in rat at a dose 30 mg/kg ip after 1 hr. The series is classed as functional. The note with it: route intraperitoneal.
The test system of series [18] is Rattus norvegicus. In words: Compound is evaluated for antiinflammatory activity using carrageenan-induced paw edema method in rat at a dose 10 mg/kg ip after 1 hr. To be noted: route intraperitoneal. Format: functional.
Series [19] has as its system Rattus norvegicus. Kind of series: Compound is evaluated for antiinflammatory activity using carrageenan-induced paw edema method in rat at a dose 10 mg/kg ip after 2 hr. To be noted: route intraperitoneal. Format: functional.
For series [20], the system named is Rattus norvegicus. Kind of series: Compound is evaluated for antiinflammatory activity using carrageenan-induced paw edema method in rat at a dose 10 mg/kg ip after 3h. The note with it: route intraperitoneal. Format: functional.

Bounds are passed on as bounds.

On to `CCN(CC)CC(=O)N(C)c1ccc(Sc2ccccc2)cc1`, for which the LD50 was 30 mg/kg in [1] and 140 mg/kg in series [2]. For the same compound, the Reduction in the series with Rattus norvegicus [3] was found to be 53%; in the series with Rattus norvegicus [4] it was 50%; in the series with Rattus norvegicus [5], 52%.
`CN(C(=O)C1CC1)c1ccc(Sc2ccccc2)cc1` had an LD50 in series [1] of over 1000 mg/kg. For the same compound, the Reduction with Rattus norvegicus [6] was determined as 57%; with Rattus norvegicus [7] it was 48%; in the series with Rattus norvegicus [8] it was 37%.
Compound `CN(C(=O)c1ccc(Cl)cc1)c1ccc(Sc2ccccc2)cc1` showed a 50% lethal dose (LD50) in series [1] of over 1000 mg/kg. Moreover, the results for the Reduction in the series with Rattus norvegicus [6], in the series with Rattus norvegicus [7] and in the series on Rattus norvegicus [8] were 65%, 60% and 48%, respectively.
For the compound `CN(C(=O)C1CN(c2ccccc2)C(=O)C1=O)c1ccc(Sc2ccccc2)cc1` (stereo unspecified), the 50% lethal dose (LD50) in series [2] was over 1000 mg/kg. For the same compound, the Reduction in the series on Rattus norvegicus [9] came to 36%; in the series with Rattus norvegicus [10], 5%; in the series on Rattus norvegicus [11], 0%.
The compound `CC(C)N1CC(C(=O)N(C)c2ccc(Sc3ccccc3)cc2)C(=O)C1=O` (stereo unspecified) came in with an LD50 in [2] of over 1000 mg/kg. The Reduction is given as 30% with Rattus norvegicus [9], 26% with Rattus norvegicus [10] and 18% in the series on Rattus norvegicus [11].
Take `CCN(CC)CC(=O)Nc1ccc(Sc2ccccc2)cc1`: the LD50 in series [1] stood at 45 mg/kg; in [2], 275 mg/kg. Also, the Reduction in the series with Rattus norvegicus [12] is listed as 30%; in the series on Rattus norvegicus [13], 47%; with Rattus norvegicus [14] it was 22%.
In turn, `CN(C(=O)CN1CCCCC1)c1ccc(Sc2ccccc2)cc1` displayed an LD50 in series [1] of 25 mg/kg. In addition, the Reduction in the series with Rattus norvegicus [3] was found to be 40%; with Rattus norvegicus [4], 29%; in the series with Rattus norvegicus [5], 34%.
In [1], `CC(=O)Oc1ccccc1C(=O)N(C)c1ccc(Sc2ccccc2)cc1` returned an LD50 of 1000 mg/kg. The Reduction in the series with Rattus norvegicus [6] worked out at 59%; in the series with Rattus norvegicus [7], 55%; with Rattus norvegicus [8], 32%.
`CN1CC(C(=O)N(C)c2ccc(Sc3ccccc3)cc2)C(=O)C1=O` (stereo unspecified) showed an LD50 in [1] of over 1000 mg/kg. For the same compound, the Reduction in the series on Rattus norvegicus [9] is listed as 36%; in the series on Rattus norvegicus [10], 0%; in the series with Rattus norvegicus [11], 0%.
Regarding `CCN(CC)CC(=O)Nc1ccc(Sc2ccc(Cl)cc2)cc1`, the LD50 amounted to 45 mg/kg in [1] and 275 mg/kg in [2]. The Reduction was found to be 56% in the series with Rattus norvegicus [12], 74% with Rattus norvegicus [13] and 72% in the series on Rattus norvegicus [14].
`CCN(CC)CC(=O)Nc1ccccc1Sc1ccc(Cl)cc1`: the LD50 in series [1] was determined as 55 mg/kg; in series [2], 35 mg/kg. The Reduction in the series with Rattus norvegicus [15] is recorded as 63%; with Rattus norvegicus [16], 68%; in the series with Rattus norvegicus [17], 65%.
With `CN(C)CC(=O)N(C)c1ccc(Sc2ccccc2)cc1`, the LD50 in series [1] came to 50 mg/kg. The Reduction is reported as 18% with Rattus norvegicus [3], 14% in the series on Rattus norvegicus [4] and 22% in the series on Rattus norvegicus [5].
Turning to `CCN(CC)CC(=O)N(C)c1ccc(Sc2ccc(Cl)cc2)cc1`, the values for the median lethal dose (LD50) in series [1] and in [2] were 45 mg/kg and 175 mg/kg, respectively. Besides, the Reduction with Rattus norvegicus [18] worked out at 13%; in the series on Rattus norvegicus [19], 15%; with Rattus norvegicus [20] it was 0%.
With `CN(C(=O)CN1CCOCC1)c1ccc(Sc2ccccc2)cc1`, the median lethal dose (LD50) in series [1] stood at 75 mg/kg. For the same compound, the Reduction in the series on Rattus norvegicus [18] worked out at 55%; with Rattus norvegicus [19], 45%; in the series with Rattus norvegicus [20] it was 43%.
`CCOC(=O)C1=C(Nc2ccc(Sc3ccccc3)cc2)C(=O)N(C(C)C)C1` showed a median lethal dose (LD50) in [2] of over 1000 mg/kg. For the same compound, the results for the Reduction in the series with Rattus norvegicus [9], with Rattus norvegicus [10] and with Rattus norvegicus [11] were 22%, 30% and 30%, respectively.
Take `CN(C(=O)CN1CCCC1)c1ccc(Sc2ccccc2)cc1`: the median lethal dose (LD50) in series [1] was 35 mg/kg. For the same compound, the Reduction in the series with Rattus norvegicus [3] turned out to be 18%; with Rattus norvegicus [4] it was 18%; in the series on Rattus norvegicus [5], 23%.
`CN1CCN(CC(=O)N(C)c2ccc(Sc3ccccc3)cc2)CC1` registered a median lethal dose (LD50) in [1] of 75 mg/kg. Moreover, the Reduction in the series on Rattus norvegicus [18] was 45%; in the series on Rattus norvegicus [19], 30%; with Rattus norvegicus [20], 38%.
In the case of `COc1ccc2c(c1)c(CC(=O)O)c(C)n2C(=O)c1ccc(Cl)cc1` [INDOMETHACIN], the values for the Reduction with Rattus norvegicus [18], in the series with Rattus norvegicus [19] and in the series with Rattus norvegicus [20] were 61%, 65% and 67%, respectively.

The values are drawn from ChEMBL document CHEMBL1121668, “(Phenylthio)phenylamine derivatives as potential antiinflammatory compounds” (J Med Chem, 1981).
